Source: patent US5981545A, “N-linked azabicyclic heterocycles useful for treating dementia” (Beecham Group p.l.c., priority 1989, dated 1999)
Counter-ions that a name gives are not always drawn.

How the values were obtained:
muscarinic receptors [1] = assay: Radio ligand binding, displacement of muscarinic agonist 3H-Oxotremorine-M (3H-OXO-M), rat cerebral cortex membranes; design: species or system Hooded Lister rats; conditions: 2 nM 3H-OXO-M, 2 mM magnesium chloride, tris pH 7.7, 37° C., 30 min
muscarinic receptors [2] = assay: Radio ligand binding, displacement of muscarinic antagonist 3H-Quinuclidinyl Benzilate (3H-QNB), rat cerebral cortex membranes; design: species or system Hooded Lister rats; conditions: 0.27 nM 3H-QNB, tris pH 7.7, 37° C., 30 min

## Cc1ccn(C2CN3CCC2CC3)n1 (racemic) [E1, (±) 3-(3-Methylpyrazol-1-yl)-1-azabicyclo[2.2.2]octane oxalate salt]
Muscarinic receptors [1]
  IC50: 369 nM
Muscarinic receptors [2]
  IC50: 5000 nM

## c1cnn(C2CN3CCC2CC3)c1 (racemic) [E2, (±) 3-(Pyrazol-1-yl)-1-azabicyclo[2.2.2]octane dihydrochloride salt]
Muscarinic receptors [1]
  IC50: 1250 nM
Muscarinic receptors [2]
  IC50: 35000 nM

## Cc1ncn(C2CN3CCC2CC3)n1 (racemic) [E6, (±) 3-(3-Methyl-1,2,4-triazol-1-yl)-1-azabicyclo[2.2.2] octane dihydrochloride salt]
Muscarinic receptors [1]
  IC50: 67.5 nM
Muscarinic receptors [2]
  IC50: 5600 nM

## c1ncn(C2CN3CCC2CC3)n1 (racemic) [E7, (±) 3-(1,2,4-Triazol-1-yl)-1-azabicyclo[2.2.2]octane dihydrochloride salt]
Muscarinic receptors [1]
  IC50: 475 nM
Muscarinic receptors [2]
  IC50: 44000 nM

## Cc1nnn(C2CN3CCC2CC3)n1 (racemic) [E10, (±) 3-(5-Methyltetrazol-2-yl)-1-azabicyclo[2.2.2]octane hydrochloride salt]
Muscarinic receptors [1]
  IC50: 30 nM
Muscarinic receptors [2]
  IC50: 2800 nM

## Nc1nnn(C2CN3CCC2CC3)n1 (racemic) [E11, (±) 3-(5-Aminotetrazol-2-yl)-1-azabicyclo[2.2.2]octane]
Muscarinic receptors [1]
  IC50: 38 nM
Muscarinic receptors [2]
  IC50: 6500 nM

## Cc1cnn(C2CN3CCC2CC3)n1 (racemic) [E12, (±) 3-(4-Methyl-1,2,3-triazol-2-yl)-1-azabicyclo-[2.2.2]octane hydrochloride]
Muscarinic receptors [1]
  IC50: 260 nM
Muscarinic receptors [2]
  IC50: 2100 nM

## c1nnn(C2CN3CCC2CC3)n1 (racemic) [E15, (±) 3-(Tetrazol-2-yl)-1-azabicyclo[2.2.2]octane hydrochloride salt]
Muscarinic receptors [1]
  IC50: 242 nM
Muscarinic receptors [2]
  IC50: 28100 nM

## c1nnnn1C1CN2CCC1CC2 (racemic) [E16, (±) 3-(Tetrazol-1-yl)-1-azabicyclo[2.2.2]octane hydrochloride salt]
Muscarinic receptors [1]
  IC50: 2750 nM
Muscarinic receptors [2]
  IC50: 110000 nM

## c1ncn(C23CCCN(CC2)C3)n1 (racemic) [E27, (±) 5-(1,2,4-Triazol-1-yl)-1-azabicyclo[3.2.1]octane dihydrochloride salt]
Muscarinic receptors [1]
  IC50: 12 nM
Muscarinic receptors [2]
  IC50: 3200 nM

## Cc1ncn(C23CCCN(CC2)C3)n1 (racemic) [E28, (±) 5-(3-Methyl-1,2,4-triazol-1-yl)-1-azabicyclo-[3.2.1]octane dihydrochloride salt]
Muscarinic receptors [1]
  IC50: 17 nM
Muscarinic receptors [2]
  IC50: 2600 nM

## c1nnnn1C12CCCN(CC1)C2 (racemic) [E30, (±) 5-(tetrazol-1-yl)-1-azabicyclo[3.2.1]octane]
Muscarinic receptors [1]
  IC50: 1400 nM

## Cc1nnn(C23CCCN(CC2)C3)n1 (racemic) [E31, (±) 5-(5-Methyltetrazol-2-yl)-1-azabicyclo[3.2.1]octane]
Muscarinic receptors [1]
  IC50: 11.5 nM
Muscarinic receptors [2]
  IC50: 2900 nM

## Nc1nnn(C23CCCN(CC2)C3)n1 (racemic) [E33, (±) 5-(5-Aminotetrazol-2-yl)-1-azabicyclo[3.2.1]octane]
Muscarinic receptors [1]
  IC50: 7.5 nM
Muscarinic receptors [2]
  IC50: 6200 nM

## Nc1nnnn1C12CCCN(CC1)C2 (racemic) [E34, (±) 5-(5-aminotetrazol-1-yl)-1-azabicyclo[3.2.1]octane]
Muscarinic receptors [1]
  IC50: 1400 nM

## Nc1ncn(C23CCCN(CC2)C3)n1 (racemic) [E36, (±) 5-(3-Amino-1,2,4-triazol-1-yl)-1-azabicyclo[3.2.1]octane]
Muscarinic receptors [1]
  IC50: 19.5 nM
Muscarinic receptors [2]
  IC50: 6750 nM

## Nc1ncnn1C12CCCN(CC1)C2 (racemic) [E37, (±) 5-(5-amino-1,2,4-triazol-1-yl)-1-azabicyclo[3.2.1]octane]
Muscarinic receptors [1]
  IC50: 130 nM
Muscarinic receptors [2]
  IC50: 58000 nM

## Nc1ncn(C2CN3CCC2CC3)n1 (racemic) [E38, (±) 3-(3-Amino-1,2,4-triazol-1-yl)-1-azabicyclo-[2.2.2]octane]
Muscarinic receptors [1]
  IC50: 180 nM
Muscarinic receptors [2]
  IC50: 14500 nM

## Nc1ncnn1C1CN2CCC1CC2 (racemic) [E39, (±) 3-(5-amino-1,2,4-triazol-1-yl)-1-azabicyclo[2.2.2]octane dihydrochloride salt]
Muscarinic receptors [1]
  IC50: 14500 nM

## Brc1nnn(C2CN3CCC2CC3)n1 (racemic) [E40, (±) 3-[5-Bromotetrazol-2-yl]-1-azabicyclo[2.2.2]octane oxalate salt]
Muscarinic receptors [1]
  IC50: 19.7 nM
Muscarinic receptors [2]
  IC50: 488 nM

## Clc1nnn(C2CN3CCC2CC3)n1 (racemic) [E44, (±) 3-(5-Chlorotetrazol-2-yl)-1-azabicyclo[2.2.2]octane oxalate salt]
Muscarinic receptors [1]
  IC50: 31.8 nM
Muscarinic receptors [2]
  IC50: 725 nM

## N#Cc1nnn(C2CN3CCC2CC3)n1 (racemic) [E46, (±) 3-(5-Cyanotetrazol-2-yl)-1-azabicyclo[2.2.2]octane oxalate salt]
Muscarinic receptors [1]
  IC50: 1400 nM
Muscarinic receptors [2]
  IC50: 7750 nM

## Brc1ncn(C2CN3CCC2CC3)n1 (racemic) [E47, (±) 3-(3-Bromo-1,2,4-triazol-1-yl)-1-azabicyclo[2.2.2]-octane oxalate salt]
Muscarinic receptors [1]
  IC50: 100 nM
Muscarinic receptors [2]
  IC50: 3300 nM

## Clc1ncn(C2CN3CCC2CC3)n1 (racemic) [E48, (±) 3-(3-Chloro-1,2,4-triazol-1-yl)-1-azabicyclo[2.2.2] octane oxalate salt]
Muscarinic receptors [1]
  IC50: 195 nM
Muscarinic receptors [2]
  IC50: 9000 nM

## Clc1nnn(C23CCCN(CC2)C3)n1 (racemic) [E49, (±) 5-(5-Chlorotetrazol-2-yl)-1-azabicyclo[3.2.1]octane oxalate salt]
Muscarinic receptors [1]
  IC50: 3.2 nM
Muscarinic receptors [2]
  IC50: 500 nM

## Brc1nnn(C23CCCN(CC2)C3)n1 (racemic) [E50, (±) 5-(5-Bromotetrazol-2-yl)-1-azabicyclo[3.2.1]octane]
Muscarinic receptors [1]
  IC50: 6.5 nM
Muscarinic receptors [2]
  IC50: 410 nM

## Cc1ncn([C@@H]2CN3CC[C@@H]2C3)n1 (relative stereo) [E8, (±) exo-3-(3-Methyl-1,2,4-triazol-1-yl)-1-azabicyclo-[2.2.1]heptane dihydrochloride salt]
Muscarinic receptors [1]
  IC50: 22 nM
Muscarinic receptors [2]
  IC50: 6300 nM

## c1ncn([C@@H]2CN3CC[C@@H]2C3)n1 (relative stereo) [E9, (±) exo-3-(1,2,4-Triazol-1-yl)-1-azabicyclo[2.2.1]heptane dihydrochloride salt]
Muscarinic receptors [1]
  IC50: 48 nM
Muscarinic receptors [2]
  IC50: 43000 nM

## Nc1nnn([C@H]2C[C@@H]3CCN(C3)C2)n1 (relative stereo) [E17, (±) exo-3-(5-Aminotetrazol-2-yl)-1-azabicyclo[3.2.1] octane hydrochloride]
Muscarinic receptors [1]
  IC50: 170 nM
Muscarinic receptors [2]
  IC50: 2700 nM

## Nc1nnn([C@@H]2CN3CC[C@@H]2C3)n1 (relative stereo) [E18, (±) exo-3-(5-Aminotetrazol-2-yl)-1-azabicyclo[2.2.1] heptane]
Muscarinic receptors [1]
  IC50: 2.62 nM
Muscarinic receptors [2]
  IC50: 4300 nM

## c1nnn([C@@H]2CN3CC[C@@H]2C3)n1 (relative stereo) [E19, (±) exo-3-(Tetrazol-2-yl)-1-azabicyclo[2.2.1]heptane hydrochloride salt]
Muscarinic receptors [1]
  IC50: 30 nM
Muscarinic receptors [2]
  IC50: 22300 nM

## Cc1nnn([C@@H]2CN3CC[C@@H]2C3)n1 (relative stereo) [E20, (±) exo-3-(5-Methyltetrazol-2-yl)-1-azabicyclo[2.2.1] heptane hydrochloride salt]
Muscarinic receptors [1]
  IC50: 4.5 nM
Muscarinic receptors [2]
  IC50: 3000 nM

## Cc1nnnn1[C@@H]1CN2CC[C@@H]1C2 (relative stereo) [E21, (±) exo-3-(5-Methyltetrazol-1-yl)-1-azabicyclo[2.2.1] heptane hydrochloride salt]
Muscarinic receptors [1]
  IC50: 6600 nM
Muscarinic receptors [2]
  IC50: 310000 nM

## c1nnn([C@H]2C[C@@H]3CCN(C3)C2)n1 (relative stereo) [E22, (±) exo-3-(Tetrazol-2-yl)-1-azabicyclo[3.2.1]octane hydrochloride salt]
Muscarinic receptors [1]
  IC50: 153 nM
Muscarinic receptors [2]
  IC50: 55000 nM

## CCc1nnn([C@@H]2CN3CC[C@@H]2C3)n1 (relative stereo) [E23, (±) exo-3-(5-Ethyltetrazol-2-yl)-1-azabicyclo[2.2.1] heptane hydrochloride salt]
Muscarinic receptors [1]
  IC50: 325 nM
Muscarinic receptors [2]
  IC50: 3300 nM

## Cc1cnn([C@@H]2CN3CC[C@@H]2C3)n1 (relative stereo) [E25, (±) exo-3-(4-Methyl-1,2,3-triazol-2-yl)-1-azabicyclo-[2.2.1]heptane hydrochloride salt]
Muscarinic receptors [1]
  IC50: 180 nM
Muscarinic receptors [2]
  IC50: 22000 nM

## Brc1nnn([C@@H]2CN3CC[C@@H]2C3)n1 (relative stereo) [E41, (±) exo-3-(5-Bromotetrazol-2-yl)-1-azabicyclo[2.2.1]heptane oxalate salt]
Muscarinic receptors [1]
  IC50: 6.5 nM
Muscarinic receptors [2]
  IC50: 1500 nM

## Clc1nnn([C@@H]2CN3CC[C@@H]2C3)n1 (relative stereo) [E42, (±) exo-3-(5-Chlorotetrazol-2-yl)-1-azabicyclo[2.2.1]heptane oxalate salt]
Muscarinic receptors [1]
  IC50: 7.6 nM
Muscarinic receptors [2]
  IC50: 700 nM

## Ic1nnn([C@@H]2CN3CC[C@@H]2C3)n1 (relative stereo) [E43, (±) exo-3-(5-Iodotetrazol-2-yl)-1-azabicyclo[2.2.1]heptane oxalate salt]
Muscarinic receptors [1]
  IC50: 42 nM
Muscarinic receptors [2]
  IC50: 330 nM

## Brc1ncn([C@@H]2CN3CC[C@@H]2C3)n1 (relative stereo) [E54, (±) exo-3-(3-Bromo-1,2,4-triazol-1-yl)-1-azabicyclo-[2.2.1]heptane oxalate salt]
Muscarinic receptors [1]
  IC50: 32 nM
Muscarinic receptors [2]
  IC50: 4400 nM

## Cc1ncn(C2=CN3CCC2CC3)n1 [E5, 3-(3-Methyl-1,2,4-triazol-1-yl)-1-azabicyclo[2.2.2]oct-2-ene dihydrochloride]
Muscarinic receptors [1]
  IC50: 651 nM
Muscarinic receptors [2]
  IC50: 30300 nM

## c1nnn(C23CCCN(CC2)C3)n1 (centres unmarked) [E29, 5-(Tetrazol-2-yl)-1-azabicyclo[3.2.1]octane]
Muscarinic receptors [1]
  IC50: 22 nM
Muscarinic receptors [2]
  IC50: 12800 nM

## c1ncn(C23CCN(CC2)C3)n1 [E51, 4-(1,2,4-Triazol-1-yl)-1-azabicyclo[2.2.1]heptane oxalate salt]
Muscarinic receptors [1]
  IC50: 16.5 nM
Muscarinic receptors [2]
  IC50: 65200 nM
